According to the NIST ThermoML archive (doi:10.1016/j.fluid.2010.03.010):
± gives the expanded uncertainty stated by the source.

Conditions: Liquid, Vibrating tube method

`CCCC[n+]1ccn(C)c1.O=S(=O)([N-]S(=O)(=O)C(F)(F)F)C(F)(F)F` showed a mass density (319.15 K, 101.33 kPa) of 1416.47 ± 11 kg/m3, a mass density (320.15 K, 101.33 kPa) of 1415.53 ± 11 kg/m3 and a mass density (321.15 K, 101.33 kPa) of 1414.58 ± 11 kg/m3. The mass density (322.15 K, 101.33 kPa) was 1413.64 ± 11 kg/m3, the mass density (323.15 K, 100 kPa) was 1413.5 ± 11 kg/m3 and the mass density (323.15 K, 101.33 kPa) was 1412.7 ± 11 kg/m3. It also gave a mass density (323.15 K, 250 kPa) of 1413.6 ± 11 kg/m3, a mass density (323.15 K, 500 kPa) of 1413.8 ± 11 kg/m3 and a mass density (323.15 K, 1010 kPa) of 1414.2 ± 11 kg/m3. The mass density (323.15 K, 2000 kPa) was 1415 ± 11 kg/m3, the mass density (323.15 K, 4990 kPa) was 1417.4 ± 11 kg/m3 and the mass density (323.15 K, 10010 kPa) was 1421.3 ± 11 kg/m3. It also gave a mass density (323.15 K, 14990 kPa) of 1425.1 ± 11 kg/m3, a mass density (323.15 K, 20010 kPa) of 1428.8 ± 12 kg/m3 and a mass density (323.15 K, 24990 kPa) of 1432.4 ± 12 kg/m3. For the same molecule, the mass density (323.15 K, 30010 kPa) was 1435.9 ± 12 kg/m3, the mass density (323.15 K, 35010 kPa) was 1439.4 ± 12 kg/m3 and the mass density (323.15 K, 40000 kPa) was 1442.8 ± 12 kg/m3. It also gave a mass density (323.15 K, 45000 kPa) of 1446.1 ± 12 kg/m3, a mass density (323.15 K, 50000 kPa) of 1449.4 ± 12 kg/m3 and a mass density (323.15 K, 55000 kPa) of 1452.6 ± 12 kg/m3. It also gave a mass density (323.15 K, 60000 kPa) of 1455.8 ± 12 kg/m3, a mass density (324.15 K, 101.33 kPa) of 1411.76 ± 11 kg/m3 and a mass density (325.15 K, 101.33 kPa) of 1410.82 ± 11 kg/m3. It also gave a mass density (326.15 K, 101.33 kPa) of 1409.88 ± 11 kg/m3, a mass density (327.15 K, 101.33 kPa) of 1408.94 ± 11 kg/m3 and a mass density (328.15 K, 101.33 kPa) of 1408 ± 11 kg/m3. It also gave a mass density (329.15 K, 101.33 kPa) of 1407.06 ± 11 kg/m3, a mass density (330.15 K, 101.33 kPa) of 1406.12 ± 11 kg/m3 and a mass density (331.15 K, 101.33 kPa) of 1405.19 ± 11 kg/m3. For the same molecule, the mass density (332.15 K, 101.33 kPa) was 1404.25 ± 11 kg/m3, the mass density (333.15 K, 100 kPa) was 1404.2 ± 11 kg/m3 and the mass density (333.15 K, 101.33 kPa) was 1403.32 ± 11 kg/m3. For the same molecule, the mass density (333.15 K, 250 kPa) was 1404.3 ± 11 kg/m3, the mass density (333.15 K, 500 kPa) was 1404.5 ± 11 kg/m3 and the mass density (333.15 K, 1010 kPa) was 1404.9 ± 11 kg/m3. For the same molecule, the mass density (333.15 K, 2000 kPa) was 1405.8 ± 11 kg/m3, the mass density (333.15 K, 4990 kPa) was 1408.2 ± 11 kg/m3 and the mass density (333.15 K, 10000 kPa) was 1412.3 ± 11 kg/m3. The mass density (333.15 K, 14990 kPa) was 1416.2 ± 11 kg/m3, the mass density (333.15 K, 20010 kPa) was 1420 ± 11 kg/m3 and the mass density (333.15 K, 25000 kPa) was 1423.6 ± 11 kg/m3. It also gave a mass density (333.15 K, 30010 kPa) of 1427.3 ± 12 kg/m3, a mass density (333.15 K, 34990 kPa) of 1430.8 ± 12 kg/m3 and a mass density (333.15 K, 40010 kPa) of 1434.3 ± 12 kg/m3. The mass density (333.15 K, 45000 kPa) was 1437.6 ± 12 kg/m3, the mass density (333.15 K, 50000 kPa) was 1441 ± 12 kg/m3 and the mass density (333.15 K, 54990 kPa) was 1444.3 ± 12 kg/m3. It also gave a mass density (333.15 K, 60000 kPa) of 1447.5 ± 12 kg/m3, a mass density (334.15 K, 101.33 kPa) of 1402.39 ± 11 kg/m3 and a mass density (335.15 K, 101.33 kPa) of 1401.45 ± 11 kg/m3. It also gave a mass density (336.15 K, 101.33 kPa) of 1400.52 ± 11 kg/m3, a mass density (337.15 K, 101.33 kPa) of 1399.59 ± 11 kg/m3 and a mass density (338.15 K, 101.33 kPa) of 1398.66 ± 11 kg/m3. The mass density (339.15 K, 101.33 kPa) was 1397.73 ± 11 kg/m3, the mass density (340.15 K, 101.33 kPa) was 1396.8 ± 11 kg/m3 and the mass density (341.15 K, 101.33 kPa) was 1395.87 ± 11 kg/m3. The mass density (342.15 K, 101.33 kPa) was 1394.94 ± 11 kg/m3, the mass density (343.15 K, 100 kPa) was 1395 ± 11 kg/m3 and the mass density (343.15 K, 101.33 kPa) was 1394.01 ± 11 kg/m3. It also gave a mass density (343.15 K, 250 kPa) of 1395.1 ± 11 kg/m3, a mass density (343.15 K, 500 kPa) of 1395.3 ± 11 kg/m3 and a mass density (343.15 K, 1000 kPa) of 1395.7 ± 11 kg/m3. For the same molecule, the mass density (343.15 K, 2000 kPa) was 1396.6 ± 11 kg/m3, the mass density (343.15 K, 4990 kPa) was 1399.1 ± 11 kg/m3 and the mass density (343.15 K, 10010 kPa) was 1403.3 ± 11 kg/m3. It also gave a mass density (343.15 K, 14910 kPa) of 1407.2 ± 11 kg/m3, a mass density (343.15 K, 20000 kPa) of 1411.2 ± 11 kg/m3 and a mass density (343.15 K, 24990 kPa) of 1414.9 ± 11 kg/m3. It also gave a mass density (343.15 K, 30010 kPa) of 1418.7 ± 11 kg/m3, a mass density (343.15 K, 34990 kPa) of 1422.3 ± 11 kg/m3 and a mass density (343.15 K, 39990 kPa) of 1425.8 ± 12 kg/m3. For the same molecule, the mass density (343.15 K, 45000 kPa) was 1429.3 ± 12 kg/m3, the mass density (343.15 K, 50000 kPa) was 1432.7 ± 12 kg/m3 and the mass density (343.15 K, 55000 kPa) was 1436.1 ± 12 kg/m3. The mass density (343.15 K, 60000 kPa) was 1439.4 ± 12 kg/m3 and the mass density (344.15 K, 101.33 kPa) was 1393.09 ± 11 kg/m3.
